# Biological target: T1, MGST1 (unactivated) (Rattus norvegicus, UniProt P08011)
# T1 sequence (P08011 2-155): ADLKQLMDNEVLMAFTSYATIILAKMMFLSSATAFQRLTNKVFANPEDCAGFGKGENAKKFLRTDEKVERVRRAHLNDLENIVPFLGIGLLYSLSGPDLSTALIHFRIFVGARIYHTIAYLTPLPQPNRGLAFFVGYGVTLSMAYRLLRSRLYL
# Assay: steady-state spectrophotometric product formation
# Type: biochemical
# Conditions: 5 mM GSH, 5 °C, pH 6.5, 0.1 M potassium phosphate, 0.1% Triton X-100; unactivated enzyme
compound,measurement,value
"O=[N+]([O-])c1ccc(Cl)c([N+](=O)[O-])c1 [CDNB, 1-Chloro-2,4-dinitrobenzene]",Km,11 ± 2 µM
